In publication PMC5428333, “Novel protein acetyltransferase, Rv2170, modulates carbon and energy metabolism in Mycobacterium tuberculosis” (Scientific Reports, 2017):

What was measured:
Rv2170 [1] = target: T1, Rv2170 (Mycobacterium tuberculosis, UniProt O53504)
Rv2170 [2] = target: T1, Rv2170; remark: listed apart in the source

T1 sequence (O53504 whole entry): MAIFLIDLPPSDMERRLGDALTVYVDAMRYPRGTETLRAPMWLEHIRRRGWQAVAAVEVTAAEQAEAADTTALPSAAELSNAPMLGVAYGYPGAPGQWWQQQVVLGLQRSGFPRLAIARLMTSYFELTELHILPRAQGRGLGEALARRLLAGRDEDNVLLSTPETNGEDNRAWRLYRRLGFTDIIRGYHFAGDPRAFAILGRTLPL

| SMILES | DTNB assay of free CoA at 412 nm; also 14C transfer to ICDH1 by SDS-PAGE and pho (Rv2170 [1]) | 14C transfer to ICDH1, SDS-PAGE and phosphorimaging (Rv2170 [2]) |
| --- | --- | --- |
| CC(=O)SCCNC(=O)CCNC(=O)[C@H](O)C(C)(C)COP(=O)(O)OP(=O)(O)OC[C@H]1O[C@@H](n2cnc3c(N)ncnc32)[C@H](O)[C@@H]1OP(=O)(O)O [acetyl-CoA] | sigmoidal response in kinetic analysis of Rv2170 when the concentration of acetyl-CoA was increased | – |
| CCC(=O)SCCNC(=O)CCNC(=O)[C@H](O)C(C)(C)COP(=O)(O)OP(=O)(O)OC[C@H]1O[C@@H](n2cnc3c(N)ncnc32)[C@H](O)[C@@H]1OP(=O)(O)O [propionyl-CoA] | – | Rv2170 is also capable of modifying ICDH1 with the succinyl-CoA and propionyl-CoA donors |
